Here are results for one molecule from ChEMBL document CHEMBL6127038, “How many organic small molecules might be used to treat COVID-19? From natural products to synthetic agents” (Eur J Med Chem, 2024).

In this test the test system is SARS-CoV-2. The experiment in a line: Antiviral activity against SARS CoV-2 infected in HEK293 cells overexpressing hACE2 assessed as inhibition of viral infection. In kind it is functional, organism-based. The note with it: Severe acute respiratory syndrome coronavirus 2, HEK293.

SMILES strings stand for the structures.

Consider `NC(=O)CC[C@H](NC(=O)[C@H](Cc1ccc(O)cc1)NC(=O)[C@H](Cc1ccccc1)N1CCN(C(=O)[C@H](CC(=O)O)NC(=O)[C@@H](N)CCC(=O)O)CC1=O)C(N)=O`, for which the half-maximal inhibitory concentration (IC50) (as a rule, the point on the concentration scale where inhibition reaches its midpoint) came to 15 µM.
